Laboratory results: patent US8067422B2, “Crystal form of phenylamino pyrimidine derivatives” (Natco Pharma Limited, priority 2008, dated 2011)

Legend:
ZR71 breast cancer cells [1] = experiment: Matrigel invasion assay (modified Boyden chamber), ZR-71; assay type: cell-based; conditions: ZR-71
Method: (§1) The in vitro invasiveness of 4910, 5310 and U87 glioma cells and MDAMB231 and ZR71 breast cancer cells in the presence of specified concentrations of compounds were assessed using a modified Boyden chamber assay. Cells were treated with these compounds for 48 h. 1×10^6 cells were suspended in 600 μl of serum-free medium supplemented with 0.2% BSA and placed in the upper compartment of the transwell chambers (Corning Costar Fischer Scientific Cat #07-200-158, Pittsburgh Pa.) coated with Matrigel (0.7 mg/ml). The lower compartment of the chamber was filled with 200 μl of serum medium and the cells were allowed to migrate for 24 h. After incubation, the cells were fixed and stained with Hema-3 and quantified as previously described (Mohanam et al. 1993). The migrated cells were imaged microscopically to determine the reduction in invasiveness induced by the compounds of this invention.

in vivo = conditions: mouse, po
[2] = test system: MDAMB231 breast cancer cells; experiment: Matrigel invasion assay (modified Boyden chamber), MDA-MB-231; assay type: cell-based; conditions: MDA-MB-231
Method: as §1

[3] = test system: K562 luciferase expressing cells; experiment: Leukemic survival study in nude mice implanted with K562 luciferase expressing cells; assay type: in vivo
Excerpt: K562 luciferase expressing cells were implanted intraperitoneally into nude mice; the mice were scanned using the xenogeny IVIS image station after ip injections of luciferin does determine implantations. Drug treatment was started as in previous studies day 15 after implantation. The animals were given treatment till day 42, after which drug treatment was stopped and survival of the animals determined as per the animal care regulations. […] Drug treatment was withdrawn on day 42 post implantation and survival of animals determined.

K562 cells = experiment: Anti-CML activity in nude mice implanted with K562 cells (leukemia growth index); assay type: in vivo; conditions: ip injections
Excerpt: Nude mice (nu/nu) were implanted with K562 cells (1×10^6) via tail vein.
Blood was drawn via the tail vein. Quantitative analysis of LGI was graphically represented.

[4] = test system: MDAMB231 breast cancer cells; experiment: In vitro angiogenic assay, MDA-MB-231 conditioned media on human dermal endothelial cells; assay type: cell-based; conditions: MDA-MB-231 cells
Method: (§2) The in vitro angiogenesis of 4910, 5310 and U87 glioma cells and MDAMB231 and ZR71 breast cancer cells in the presence of specified concentrations of compounds were determined as follows, cells (2×10^4/well) were seeded in 8-well chamber slides and were treated with various concentrations of test compounds. After a 24 h incubation period, the conditioned media was removed and added to a 4×10^4 human dermal endothelial cell (monolayer in 8-well chamber slides) and the human dermal endothelial cells were allowed to grow for 72 h. Cells were then fixed in 3.7% formaldehyde and stained with H&E and photographed.

U87 glioma cells = experiment: Matrigel invasion assay (modified Boyden chamber), U87; assay type: cell-based; conditions: U87
Method: as §1

K562 = experiment: ED50 (po) in leukemic mice (K562)
ZR71 breast cancer cells [5] = experiment: In vitro angiogenic assay, ZR-71 conditioned media on human dermal endothelial cells; assay type: cell-based; conditions: ZR-71 cells; radiation not distinguished
Method: as §2

4910 glioma cells = experiment: In vitro angiogenic assay, 4910 conditioned media on human dermal endothelial cells; assay type: cell-based; conditions: 4910 cells
Method: as §2

[6] = test system: AKT, ERK and Pi3k in ZR71 breast cancer cells; experiment: Western blot analysis, ZR71; assay type: cell-based
Method: Western blot analysis of 4910, 5310 and U87 glioma cells and MDAMB231 and ZR71 breast cancer cells in the presence of specified concentrations of compounds were assessed as per standard protocols. Cells were treated with AN019, AN024 or Temozolomide at the specified concentrations. 24 h after treatment, cells were collected and cell lysates extracted. Equal quantities of proteins were fractionated by SDS-PAGE. The fractionated proteins were blotted on to nylon membranes and immunoprobed for AKT, ERK and Pi3k. Breast cancer cell protein isolates were additionally immunoprobed for EGFR, ErbB1, ErbB2 and ErbB3.

Cc1ccc(NC(=O)c2cc(C(F)(F)F)cc(C(F)(F)F)c2)cc1Nc1nccc(-c2cccnc2)n1 [AN019, (3,5-bis trifluoromethyl)-N-[4-methyl-3-(4-pyridin-3yl-pyrimidin-2ylamino)-phenyl]-benzamide]
±Change in invasion after radiation (ZR71 breast cancer cells [1]): −14% | LD50 (in vivo): 1130 mg/kg | ±Change in invasion after radiation [2]: −30% | Blast cell count from blood smears, effectiveness after withdrawal of drug treatment ([3]; drug treatment withdrawn on day 42): showed effectiveness after withdrawal of drug treatment | Mortality ([3]; treatment day 15 to day 42, then withdrawn, 10 animals): did not show any mortality | Physiological, phenotypic or behavioral abnormality (K562 cells): no abnormal physiological, phenotypic or behavioral abnormality | Inhibition of angiogenesis ([4]; after radiation): slight inhibition | Inhibition of angiogenesis ([4]; control condition (without radiation)): slight inhibition | ±Change in invasion after radiation (U87 glioma cells): 0% | Therapeutic index - LD50/ED50 (K562; Leukemic mice (K562)): 98.5 | ED50 (K562; Mus musculus, K562, po, read-out: ED50 (po) Mice): 11.5 mg/kg | Inhibition of angiogenesis (ZR71 breast cancer cells [5]): complete inhibition of angiogenesis | Inhibition of angiogenesis (4910 glioma cells; after radiation): increase in angiogenic inhibition | Inhibition of angiogenesis (4910 glioma cells; without radiation): inhibition of angiogenesis similar to MDA-MB-231 cells | AKT levels (Western blot) ([6]; ZR71, after radiation): enhanced after radiation | AKT levels (Western blot) ([6]; ZR71, unirradiated): decrease in AKT levels | PI3k levels (Western blot) ([6]; ZR71, with radiation): absent | PI3k levels (Western blot) ([6]; ZR71, without radiation): absent
